According to ChEMBL document CHEMBL5226308, “Amide-Amine Replacement in Indole-2-carboxamides Yields Potent Mycobactericidal Agents with Improved Water Solubility” (ACS Med Chem Lett, 2021):
Calls of active or inactive are those of the source. The rule behind the calls is not given here.

Assays:
[1] = test system: Mycobacterium tuberculosis; test: Antimycobacterial activity against Mycobacterium tuberculosis H37Rv M16-5 harboring G253E mutant assessed as inhibition of bacterial growth incubated for 7 days by broth dilution method; type: functional, organism-based; settings: time 7.0 day
[2] = test system: Mycobacterium tuberculosis; test: Antimycobacterial activity against Mycobacterium tuberculosis H37Rv M47-2 harboring I244F mutant assessed as inhibition of bacterial growth incubated for 7 days by broth dilution method; type: functional, organism-based; settings: time 7.0 day
[3] = test system: Mycobacterium tuberculosis; test: Antimycobacterial activity against Mycobacterium tuberculosis H37Rv M16-1 harboring V285A mutant assessed as inhibition of bacterial growth incubated for 7 days by broth dilution method; type: functional, organism-based; settings: time 7.0 day
[4] = test system: Mycobacterium tuberculosis; test: Antimycobacterial activity against Mycobacterium tuberculosis H37Rv M47-4 harboring V681I mutant assessed as inhibition of bacterial growth incubated for 7 days by broth dilution method; type: functional, organism-based; settings: time 7.0 day
[5] = test system: Mycobacterium tuberculosis; test: Antimycobacterial activity against Mycobacterium tuberculosis H37Rv M16-4 harboring V684A mutant assessed as inhibition of bacterial growth incubated for 7 days by broth dilution method; type: functional, organism-based; settings: time 7.0 day
[6] = test system: Mycobacterium tuberculosis; test: Antimycobacterial activity against Mycobacterium tuberculosis H37Rv M33-1 harboring V643M mutant assessed as inhibition of bacterial growth incubated for 7 days by broth dilution method; type: functional, organism-based; settings: time 7.0 day
[7] = test system: Mycobacterium tuberculosis; test: Antimycobacterial activity against Mycobacterium tuberculosis H37Rv M47-1 harboring A700T mutant assessed as inhibition of bacterial growth incubated for 7 days by broth dilution method; type: functional, organism-based; settings: time 7.0 day
[8] = test system: Mycobacterium tuberculosis; test: Antimycobacterial activity against Mycobacterium tuberculosis H37Rv M16-3 harboring V684G mutant assessed as inhibition of bacterial growth incubated for 7 days by broth dilution method; type: functional, organism-based; settings: time 7.0 day
[9] = test system: Mycobacterium tuberculosis; test: Antimycobacterial activity against Mycobacterium tuberculosis H37Rv M47-3 harboring Ins710Q mutant assessed as inhibition of bacterial growth incubated for 7 days by broth dilution method; type: functional, organism-based; settings: time 7.0 day
[10] = Ratio of MIC90 for antimycobacterial activity against Mycobacterium tuberculosis H37Rv M47-3 harboring mmpL3 Ins2128CAG/Ins710Q mutant to MIC90 for antimycobacterial activity against wild type Mycobacterium tuberculosis H37Rv ATCC 27294; type: functional
[11] = Ratio of MIC90 for antimycobacterial activity against Mycobacterium tuberculosis H37Rv M16-4 harboring mmpL3 T2051C/V684A mutant to MIC90 for antimycobacterial activity against wild type Mycobacterium tuberculosis H37Rv ATCC 27294; type: functional
[12] = Ratio of MIC90 for antimycobacterial activity against Mycobacterium tuberculosis H37Rv M16-1 harboring mmpL3 T854C/V258A mutant to MIC90 for antimycobacterial activity against wild type Mycobacterium tuberculosis H37Rv ATCC 27294; type: functional
[13] = Ratio of MIC90 for antimycobacterial activity against Mycobacterium tuberculosis H37Rv M33-1 harboring mmpL3 G1927A/V643M mutant to MIC90 for antimycobacterial activity against wild type Mycobacterium tuberculosis H37Rv ATCC 27294; type: functional
[14] = Ratio of MIC90 for antimycobacterial activity against Mycobacterium tuberculosis H37Rv M16-2 harboring mmpL3 G758A/G253E mutant to MIC90 for antimycobacterial activity against wild type Mycobacterium tuberculosis H37Rv ATCC 27294; type: functional
[15] = Ratio of MIC90 for antimycobacterial activity against Mycobacterium tuberculosis H37Rv M47-4 harboring mmpL3 G2041A/V681I mutant to MIC90 for antimycobacterial activity against wild type Mycobacterium tuberculosis H37Rv ATCC 27294; type: functional
[16] = Ratio of MIC90 for antimycobacterial activity against Mycobacterium tuberculosis H37Rv M47-1 harboring mmpL3 G2098A/A700T mutant to MIC90 for antimycobacterial activity against wild type Mycobacterium tuberculosis H37Rv ATCC 27294; type: functional
[17] = Ratio of MIC90 for antimycobacterial activity against Mycobacterium tuberculosis H37Rv M47-2 harboring mmpL3 A730T/I244F mutant to MIC90 for antimycobacterial activity against wild type Mycobacterium tuberculosis H37Rv ATCC 27294; type: functional
[18] = Ratio of MIC90 for antimycobacterial activity against Mycobacterium tuberculosis H37Rv M16-5 harboring mmpL3 G758A/G253E mutant to MIC90 for antimycobacterial activity against wild type Mycobacterium tuberculosis H37Rv ATCC 27294; type: functional
[19] = Ratio of MIC90 for antimycobacterial activity against Mycobacterium tuberculosis H37Rv M16-3 harboring mmpL3 T2051G/V684G mutant to MIC90 for antimycobacterial activity against wild type Mycobacterium tuberculosis H37Rv ATCC 27294; type: functional

Row | SMILES | Activity [1] | Activity [2] | Activity [3] | Activity [4] | Activity [5] | Activity [6] | Activity [7] | Activity [8] | Activity [9] | Ratio [10] | Ratio [11] | Ratio [12] | Ratio [13] | Ratio [14] | Ratio [15] | Ratio [16] | Ratio [17] | Ratio [18] | Ratio [19]
1 | O=C(NC1CCCCCCC1)c1cc2ccccc2s1 | inactive | inactive | inactive | inactive | inactive | inactive | inactive | inactive | inactive |  |  |  |  |  |  |  |  |  | 
2 | c1ccc2[se]c(CNC3CCCCCCC3)cc2c1 | inactive | inactive | inactive | inactive | inactive | inactive | inactive | inactive | inactive |  |  |  |  |  |  |  |  |  | 
3 | c1ccc2sc(CNC3CCCCCCC3)cc2c1 |  |  |  |  |  |  |  |  |  | 5 | 5 | 5 | 5 | 5 | 5 | 5 | 5 | 5 | 5
4 | FC(F)(F)c1ccc2cc(CNC3CCCCCCC3)[nH]c2c1 |  |  |  |  |  |  |  |  |  | 5 | 5 | 5 | 5 | 5 | 5 | 5 | 5 | 5 | 5
5 | O=C(NC1CCCCCCC1)c1cc2ccccc2[se]1 | inactive | inactive | inactive | inactive | inactive | inactive | inactive | inactive | inactive |  |  |  |  |  |  |  |  |  | 
6 | O=C(NC1CCCCCCC1)c1cc2ccc(C(F)(F)F)cc2[nH]1 |  |  |  |  |  |  |  |  |  | 5 | 5 | 5 | 5 | 5 | 5 | 5 | 5 | 5 | 5
